Data: the supplement of paper PMC8671470

Columns and labels:
Details in all cases: 72 h
HL-60 [1] = test: area under dose-response curve (viability, 1 nM-10 uM) (fraction (0-1)); higher = more sensitive
How it was run: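 In 384-well plates, the full library was rescreened in duplicate on HL-60 cells in RPMI 1640 with 10% FBS, at 1–10,000 nM in five tenfold concentrations, for 72 h at 37 °C, 5% CO2. Each run also held DMSO or 100 nM of one of three metabolic inhibitors. Viability was measured by CellTiter-Glo and normalised to DMSO wells and to wells with proteasome inhibitor, present at 10 μM. Any area under the curve comes from four-parameter log-logistic fitting with drc and PharmacoGx.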

KU-812 = test: cell viability (% survival relative to DMSO control, bortezomib = 0%); higher = less cytotoxic
How it was run: (§1)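 Fifteen myeloid leukaemia cell lines (10 AML, 5 CML) were seeded at a density titrated to the linear growth range. They went into 384-well plates with compounds pre-printed at 1, 10, 100, 1000 or 10000 nM in duplicate. After 72 h at 37 °C with 5% CO2, viability was read by CellTiter-Glo luminescence. Values are percent survival, with vehicle set to 100% and a 10 µM positive control to 0%, averaged over the duplicates.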

HL-60 [2] = test: as above
How it was run: as §1

KG-1 = test: as above
How it was run: as §1

[3] = co-treatment: GSK2194069 100 nM
[4] = co-treatment: pictilisib 100 nM

Row | Compound | area under dose-response curve (HL-60 [1]; co-treatment: AZD3965 100 nM) | area under dose-response curve (HL-60 [1]; co-treatment: DMSO vehicle) | area under dose-response curve (HL-60 [1]; [3]) | area under dose-response curve (HL-60 [1]; [4]) | cell viability (KU-812; 1 nM) [%] | cell viability (KU-812; 10 nM) [%] | cell viability (KU-812; 100 nM) [%] | cell viability (KU-812; 1000 nM) [%] | cell viability (KU-812; 10000 nM) [%] | cell viability (HL-60 [2]; 1 nM) [%] | cell viability (HL-60 [2]; 10 nM) [%] | cell viability (HL-60 [2]; 100 nM) [%] | cell viability (HL-60 [2]; 1000 nM) [%] | cell viability (HL-60 [2]; 10000 nM) [%] | cell viability (KG-1; 1 nM) [%] | cell viability (KG-1; 10 nM) [%] | cell viability (KG-1; 100 nM) [%] | cell viability (KG-1; 1000 nM) [%] | cell viability (KG-1; 10000 nM) [%]
1 | Cc1noc2c1-c1ccccc1C(c1ccc(Cl)cc1)=N[C@H]2CC(N)=O [CPI-0610] | 0.21 | 0.157 | 0.168 | 0.289 | 97.2 | 99.8 | 73.1 | 36 | 4.66 | 110 | 102 | 69.4 | 33 | 16.1 | 100 | 93.9 | 62.6 | 21.5 | 12.7
2 | CCOc1ccc(Cc2cc([C@@H]3O[C@H](CO)[C@@H](O)[C@H](O)[C@H]3O)ccc2Cl)cc1 [Dapagliflozin] | < 0.0301 | < 0.0301 | < 0.0301 | < 0.0301 | 85.7 | 96.5 | 90.5 | 106 | 81.3 | 101 | 86.8 | 81.3 | 94.4 | 104 | 95.5 | 102 | 83.6 | 101 | 91.8
3 | O=C(O)C(Cl)Cl [Dichloroacetate] | < 0.0301 | < 0.0301 | < 0.0301 | < 0.0301 | 97.1 | 90.9 | 99 | 108 | 100 | 96.5 | 115 | 104 | 109 | 120 | 108 | 94.6 | 91.5 | 93 | 103
4 | O=C1Oc2ccccc2C(=O)C1CC1C(=O)Oc2ccccc2C1=O (stereo not drawn) [Dicumarol] | < 0.0301 | < 0.0301 | < 0.0301 | < 0.0301 | 110 | 95.6 | 84.2 | 97.8 | 107 | 98.3 | 102 | 101 | 104 | 112 | 106 | 105 | 88.6 | 101 | 95.9
5 | O=c1c2ccccc2[se]n1-c1ccccc1 [Ebselen] | < 0.0301 | < 0.0301 | < 0.0301 | < 0.0301 | 94.5 | 104 | 89.5 | 99.4 | 87.8 | 107 | 94.8 | 102 | 95.6 | 77.6 | 98.2 | 89.7 | 105 | 80.3 | 75.4
6 | C#Cc1cnc(O)nc1O [Eniluracil] | < 0.0301 | < 0.0301 | < 0.0301 | < 0.0301 | 94.9 | 109 | 95.2 | 94.3 | 89.7 | 112 | 134 | 123 | 95.1 | 111 | 103 | 117 | 107 | 100 | 114
7 | CC(/C=C1\SC(=S)N(CC(=O)O)C1=O)=C\c1ccccc1 [Epalrestat] | < 0.0301 | < 0.0301 | < 0.0301 | < 0.0301 | 101 | 91.6 | 94.9 | 95.4 | 111 | 120 | 102 | 109 | 112 | 115 | 108 | 101 | 116 | 104 | 111
